In the NIST ThermoML archive (doi:10.1021/je100832h):
Numbers after ± are expanded uncertainties.

Assays:
[1] = xn = mol fraction of the nth substance listed; details: 101.32 kPa, Liquid, Vibrating tube method
[2] = excess molar enthalpy (molar enthalpy of mixing); xn = mol fraction of the nth substance listed; details: 291.15 K, 101 kPa, Liquid, Calvet calorimetry

Compound: CCOC(C)=O [ethyl acetate] + CCCCCCC
- mass density ([1]; 291.15 K, x1 = 0.0161): 687.34 ± 0.32 kg/m3
- mass density ([1]; 291.15 K, x1 = 0.0572): 692.44 ± 0.32 kg/m3
- mass density ([1]; 291.15 K, x1 = 0.1159): 700.33 ± 0.32 kg/m3
- mass density ([1]; 291.15 K, x1 = 0.2057): 713.27 ± 0.32 kg/m3
- mass density ([1]; 291.15 K, x1 = 0.2894): 726.55 ± 0.32 kg/m3
- mass density ([1]; 291.15 K, x1 = 0.3673): 740 ± 0.32 kg/m3
- mass density ([1]; 291.15 K, x1 = 0.4396): 753.43 ± 0.32 kg/m3
- mass density ([1]; 291.15 K, x1 = 0.5126): 768.17 ± 0.33 kg/m3
- mass density ([1]; 291.15 K, x1 = 0.5792): 782.54 ± 0.32 kg/m3
- mass density ([1]; 291.15 K, x1 = 0.6414): 796.91 ± 0.32 kg/m3
- mass density ([1]; 291.15 K, x1 = 0.7006): 811.5 ± 0.32 kg/m3
- mass density ([1]; 291.15 K, x1 = 0.7555): 825.89 ± 0.31 kg/m3
- mass density ([1]; 291.15 K, x1 = 0.8141): 842.35 ± 0.31 kg/m3
- mass density ([1]; 291.15 K, x1 = 0.8631): 856.84 ± 0.31 kg/m3
- mass density ([1]; 291.15 K, x1 = 0.9105): 872 ± 0.3 kg/m3
- mass density ([1]; 291.15 K, x1 = 0.9718): 892.61 ± 0.3 kg/m3
- mass density ([1]; 291.15 K, x1 = 1): 902.88 ± 0.3 kg/m3
- mass density ([1]; 298.15 K, x1 = 0.0409): 684.35 ± 0.32 kg/m3
- mass density ([1]; 298.15 K, x1 = 0.0568): 686.42 ± 0.32 kg/m3
- mass density ([1]; 298.15 K, x1 = 0.1196): 694.72 ± 0.32 kg/m3
- mass density ([1]; 298.15 K, x1 = 0.1493): 698.85 ± 0.32 kg/m3
- mass density ([1]; 298.15 K, x1 = 0.2079): 707.39 ± 0.32 kg/m3
- mass density ([1]; 298.15 K, x1 = 0.2587): 715.2 ± 0.32 kg/m3
- mass density ([1]; 298.15 K, x1 = 0.2981): 721.51 ± 0.32 kg/m3
- mass density ([1]; 298.15 K, x1 = 0.3171): 724.7 ± 0.32 kg/m3
- mass density ([1]; 298.15 K, x1 = 0.3703): 733.9 ± 0.32 kg/m3
- mass density ([1]; 298.15 K, x1 = 0.4203): 743.04 ± 0.32 kg/m3
- mass density ([1]; 298.15 K, x1 = 0.4911): 756.8 ± 0.33 kg/m3
- mass density ([1]; 298.15 K, x1 = 0.5587): 770.85 ± 0.32 kg/m3
- mass density ([1]; 298.15 K, x1 = 0.6169): 783.73 ± 0.32 kg/m3
- mass density ([1]; 298.15 K, x1 = 0.6668): 795.46 ± 0.32 kg/m3
- mass density ([1]; 298.15 K, x1 = 0.727): 810.54 ± 0.32 kg/m3
- mass density ([1]; 298.15 K, x1 = 0.778): 824.17 ± 0.31 kg/m3
- mass density ([1]; 298.15 K, x1 = 0.8302): 839.02 ± 0.31 kg/m3
- mass density ([1]; 298.15 K, x1 = 0.8787): 853.8 ± 0.31 kg/m3
- mass density ([1]; 298.15 K, x1 = 0.9206): 867.23 ± 0.3 kg/m3
- mass density ([1]; 298.15 K, x1 = 0.9879): 890.2 ± 0.3 kg/m3
- mass density ([1]; 298.15 K, x1 = 1): 894.4 ± 0.3 kg/m3
- mass density ([1]; 318.15 K, x1 = 0.053): 668.2 ± 0.32 kg/m3
- mass density ([1]; 318.15 K, x1 = 0.0902): 672.9 ± 0.32 kg/m3
- mass density ([1]; 318.15 K, x1 = 0.1685): 683.15 ± 0.32 kg/m3
- mass density ([1]; 318.15 K, x1 = 0.2326): 692.18 ± 0.32 kg/m3
- mass density ([1]; 318.15 K, x1 = 0.2439): 693.85 ± 0.32 kg/m3
- mass density ([1]; 318.15 K, x1 = 0.2981): 702.14 ± 0.32 kg/m3
- mass density ([1]; 318.15 K, x1 = 0.3991): 719.02 ± 0.33 kg/m3
- mass density ([1]; 318.15 K, x1 = 0.4184): 722.43 ± 0.33 kg/m3
- mass density ([1]; 318.15 K, x1 = 0.4793): 733.7 ± 0.33 kg/m3
- mass density ([1]; 318.15 K, x1 = 0.528): 743.25 ± 0.33 kg/m3
- mass density ([1]; 318.15 K, x1 = 0.5785): 753.7 ± 0.33 kg/m3
- mass density ([1]; 318.15 K, x1 = 0.6277): 764.5 ± 0.32 kg/m3
- mass density ([1]; 318.15 K, x1 = 0.6774): 775.92 ± 0.32 kg/m3
- mass density ([1]; 318.15 K, x1 = 0.7248): 787.48 ± 0.32 kg/m3
- mass density ([1]; 318.15 K, x1 = 0.7652): 797.95 ± 0.32 kg/m3
- mass density ([1]; 318.15 K, x1 = 0.7914): 804.97 ± 0.31 kg/m3
- mass density ([1]; 318.15 K, x1 = 0.8486): 821.19 ± 0.31 kg/m3
- mass density ([1]; 318.15 K, x1 = 0.9067): 838.76 ± 0.31 kg/m3
- mass density ([1]; 318.15 K, x1 = 0.9554): 854.25 ± 0.31 kg/m3
- mass density ([1]; 318.15 K, x1 = 1): 869.6 ± 0.3 kg/m3
- mass density ([1]; 328.15 K, x1 = 0.0084): 654.45 ± 0.33 kg/m3
- mass density ([1]; 328.15 K, x1 = 0.1044): 665.69 ± 0.32 kg/m3
- mass density ([1]; 328.15 K, x1 = 0.1911): 676.99 ± 0.32 kg/m3
- mass density ([1]; 328.15 K, x1 = 0.2817): 690.09 ± 0.32 kg/m3
- mass density ([1]; 328.15 K, x1 = 0.3479): 700.46 ± 0.32 kg/m3
- mass density ([1]; 328.15 K, x1 = 0.423): 713.16 ± 0.33 kg/m3
- mass density ([1]; 328.15 K, x1 = 0.488): 725.11 ± 0.33 kg/m3
- mass density ([1]; 328.15 K, x1 = 0.5492): 737.13 ± 0.33 kg/m3
- mass density ([1]; 328.15 K, x1 = 0.621): 752.34 ± 0.32 kg/m3
- mass density ([1]; 328.15 K, x1 = 0.6655): 762.36 ± 0.32 kg/m3
- mass density ([1]; 328.15 K, x1 = 0.7209): 775.45 ± 0.32 kg/m3
- mass density ([1]; 328.15 K, x1 = 0.7755): 789.39 ± 0.32 kg/m3
- mass density ([1]; 328.15 K, x1 = 0.8274): 803.37 ± 0.31 kg/m3
- mass density ([1]; 328.15 K, x1 = 0.8717): 815.94 ± 0.31 kg/m3
- mass density ([1]; 328.15 K, x1 = 0.9217): 831.14 ± 0.31 kg/m3
- mass density ([1]; 328.15 K, x1 = 0.9731): 847.9 ± 0.31 kg/m3
- mass density ([1]; 328.15 K, x1 = 1): 857.17 ± 0.31 kg/m3
- excess molar enthalpy ([2]; x1 = 0.0704): 0.107 ± 0.00239 kcal/mol
- excess molar enthalpy ([2]; x1 = 0.1554): 0.198 ± 0.0043 kcal/mol
- excess molar enthalpy ([2]; x1 = 0.2363): 0.272 ± 0.00574 kcal/mol
- excess molar enthalpy ([2]; x1 = 0.3039): 0.323 ± 0.00693 kcal/mol
- excess molar enthalpy ([2]; x1 = 0.3738): 0.358 ± 0.00765 kcal/mol
- excess molar enthalpy ([2]; x1 = 0.4354): 0.375 ± 0.00813 kcal/mol
- excess molar enthalpy ([2]; x1 = 0.4887): 0.379 ± 0.00813 kcal/mol
- excess molar enthalpy ([2]; x1 = 0.5306): 0.376 ± 0.00813 kcal/mol
- excess molar enthalpy ([2]; x1 = 0.5794): 0.367 ± 0.00789 kcal/mol
- excess molar enthalpy ([2]; x1 = 0.6196): 0.355 ± 0.00765 kcal/mol
- excess molar enthalpy ([2]; x1 = 0.6682): 0.335 ± 0.00717 kcal/mol
- excess molar enthalpy ([2]; x1 = 0.7293): 0.299 ± 0.00645 kcal/mol
- excess molar enthalpy ([2]; x1 = 0.7913): 0.256 ± 0.0055 kcal/mol
- excess molar enthalpy ([2]; x1 = 0.8405): 0.204 ± 0.0043 kcal/mol
- excess molar enthalpy ([2]; x1 = 0.9015): 0.137 ± 0.00311 kcal/mol
- excess molar enthalpy ([2]; x1 = 0.9556): 0.0667 ± 0.00167 kcal/mol
